≈ marks a conversion by molar mass, not a printed value. Read-outs that look alike come from different tables or passages of the source.
Legend:
MCF-7 luc Y537S = experiment: Clonogenic assay (clonal expansion), MCF-7 cells with Y537S ER mutation; type: cell-based; details: Homo sapiens, MCF7, 336 h
Procedure: (§1) Cells were seeded at a density of 1–2×10^3 cells/well in a 6-well plate and treated with increasing concentrations of the X compounds for 14–21 days. Medium and compounds were renewed every 7 days. The experiments were terminated by fixing the cells with methanol and the colonies formed were visualized after staining with 0.5% crystal violet (w/v) in 20% methanol (v/v). Plates were photographed and the area covered by the colonies was calculated using the ColonyArea Plugin for Fiji (RRID:SCR_003070).[20]

CTC-ITB-01 cells [1] = experiment: cells; type: cell-based; details: for CC50: Homo sapiens, read-out: LC50
Procedure: LC50 values were measured using the CyQUANT NF Cell Proliferation Assay Kit (Thermo Fisher). CTC-ITB-01 cells were plated at a density of 2x10^3 cells/well in 96-well plates and treated the following day with serial dilutions of the test compounds. After incubation for the indicated time, cells were stained with CyQUANT dye according to the manufacturer’s protocol and incubated at 37°C for 30 min. Fluorescence was measured using a Tecan Infinite M Nano+ (excitation: 485 nm; emission: 530 nm). For the calculation of the LC50 the fluorescence was plotted against the Log10 of the inhibitor concentration in nM as x values and the LC50 values were calculated with 95% confidence intervals (n = 4).

CTC-ITB-01 cells [2] = experiment: Clonogenic assay of CTC-ITB-01 cells; type: cell-based, human; details: CTC-ITB-01, two weeks of treatment
Procedure: as §1

PDxO#28 = experiment: Organoid viability, CellTiter-Glo 3D; type: cell-based, human; details: PDxO#28 in 3D Matrigel, 7 days, increasing doses; same results in PDO#268 and PDO#480
From the text: Organoids were generated from patients’ samples and from patient-derived xenograft (PDX) tumors, as previously described.[25] PDX were derived from BCRO#28, an ER^+ breast cancer sample collected from a treatment naive patient. PDO#268 was derived from BCRO#268, an ER^+ breast cancer sample collected from treatment naive patient. PDO#480 was derived from BCRO#480, an ER^+ breast cancer sample collected from a patient subjected to chemotherapy in neo-adjuvant setting. Briefly, tumors freshly explanted from mice were mechanically shredded, digested with collagenase (Merck) and filtered through a 100 μm strainer. Digested material (isolated cells and small cell clusters) was centrifuged and embedded in 3D-matrix drops (reduced growth factor Basement Membrane Extract, BME, R&D systems), then overlaid with breast cancer organoid medium.[25] For 3D survival curves under treatment, organoids were embedded in BME drops and, after 24 - 48 h, drugs were added. Fresh drug-containing medium was replaced on day 4. On day 7 of treatment, CellTiter-Glo 3D Cell Viability Assay (Promega) was added and luminescent signal from viable organoids was recorded on Infinite M1000 Pro instrument (Tecan).

[3] = Thermodynamic solubility, shake-flask method; type: physicochemical; details: HEPES buffer 0.1 M pH 7.4, 21 °C
Procedure: Thermodynamic solubility was determined using the classical shake-flask method. The solid compound (4 mg) was suspended in 1 mL HEPES buffer (0.1 M, pH 7.4) and constantly stirred at 21 °C for 24 h. […] The injection volume for all analyses was 50 μL and the flow rate was kept at 1 mL/min during the analysis. A mobile phase gradient method was applied as a method with 5% solvent B to 99% solvent B in 5 min, followed by 3 min of elution at 99% solvent B.
Calibration curve was generated from a serial dilution of the respective analyte in DMSO at 2.5, 1.25, 0.625, 0.313, 0.156, 0.078, 0.039 mM starting from a 10 mM DMSO stock solution. Subsequently, 2 μL of each dilution was added to 198 μL of a buffer (HEPES, 0.1 M, pH 7.4)/acetonitrile mixture in a 3:2 ratio yielding final dilutions of 25, 12.5, 6.25, 3.125, 1.562, 0.781, 0.391 μM. These were then subjected to HPLC analysis as described above.
Using the results from the linear regression of the internal calibration measurement points (Figure S5) and the mean AUC values from the saturated aqueous solutions, the concentration C of the analytes in the saturated aqueous solution, expressed in μM, were calculated using Equation 2:(Equation 1) AUC=Slope·C+YIntercept (Equation 2) C=AUC−YIntercept/Slope

[4] = Compound stability in aqueous environment; type: physicochemical; details: 12.5 μM, HEPES pH 7.4/acetonitrile 3:2, 1% DMSO, 21 °C, 5 days
Procedure: The stability of the compounds was evaluated at a concentration of 12.5 μM in a 3:2 mixture of buffer (HEPES, 0.1 M, pH 7.4) and acetonitrile, with 1% DMSO. Acetonitrile was added because the concentration of 12.5 μM exceeded the thermodynamic solubility of the compounds in the buffer. This addition thereby prevented the formation of precipitates and a gradual decrease in compound concentration during the measurement. The resulting solution was stirred at 21 °C in a sealed vial (crimp neck vials, 5 mL, clear (Cat. No. 548-0611A) in combination with natural rubber septa (548-0565A) and aluminum crimp caps (548-3278A), VWR International) for 5 days. […] The AUC measured was subsequently plotted as a function of the incubation time (Figure S3). No signs of decomposition could be observed over the given time.

[5] = Parallel artificial membrane permeability assay (PAMPA); details: for Conc. acceptor well / Conc. donor well: PAMPA after incubation
Procedure: The plates were stored at – 20 °C until ready for use. Prior to use, the plate was prewarmed at room temperature for 30 min. Donor- and acceptor solutions were prepared as 12 mM phosphate buffered saline with a pH of 6.5 (donor) respectively 7.4 (acceptor). […] Then, 300 μL of each donor solution were filled into the donor (bottom) wells of the PAMPA plate. 200 μL of the acceptor medium were loaded into each well of the pre-coated receiver plate (top). […] The compound concentrations in the donor- and acceptor wells were then determined using a Jasco 2 HPLC system equipped with a ReproSil-Pur 120 ODS-3 column (5 μm, 50 × 2 mm) and UV detection. […] The injection volume was 40 μL and the flow rate 1 mL/min. […] For X15695, two calibration curves were prepared in the presence (donor well) and absence (acceptor well) of 10% ethanol. (Figure S6). The experiments were performed in triplicates.
Where cA(t) is the compound concentration in the acceptor well in μmol⋅l^−1, cD(t) is the compound concentration in the donor well in […], VA and VD is the volume of the acceptor respectively donor solution per well in mL, A is the membrane area in cm^2 and t the incubation time in seconds (Table S3).

**Q.** What does the source list for Fc1ccc(-c2cn3cc(C(F)(F)F)cc(Cl)c3n2)cc1 [X15695]?
**A.** IC50 (MCF-7 luc Y537S; read-out: IC50 clonal expansion, Figure 1B, MCF-7 luc Y537S, absence of E2, 14 days): 7.82 nM; IC50 (MCF-7 luc Y537S; read-out: IC50 clonal expansion, Figure 1C, MCF-7 luc Y537S + 10 nM E2, 14 days): 6.41 nM; IC50 (MCF-7 luc Y537S; read-out: IC50 clonal expansion, Figure 1D, MCF-7 luc Y537S, absence of E2, 14 days): 7.82 nM; IC50 (MCF-7 luc Y537S; read-out: IC50 clonal expansion, Figure 1E, MCF-7 luc Y537S + 10 nM E2, 14 days): 6.41 nM; LC50 fold lower compared to fulvestrant (CTC-ITB-01 cells [1]; CTC-ITB-01, 48 h and 120 h): 20 fold; CC50 (CTC-ITB-01 cells [1]; 48 h): 400 nM; CC50 (CTC-ITB-01 cells [1]; 120 h): 300 nM; inhibition of clonal expansion compared to fulvestrant (CTC-ITB-01 cells [2]): about three orders of magnitude more potent; organoid viability (survival) (PDxO#28): significantly reduced survival in a dose-dependent manner; solubility thermodynamic at 24 h [3]: 3 µM (≈ 0.944 µg/mL); solubility thermodynamic at 24 h ([3]; HEPES buffer, 21 °C, pH 7.4, aqueous buffer, thermodynamic from solid): 2.99 µM (≈ 0.941 µg/mL); stability in aqueous environment [4]: no obvious decomposition detected; Papp at 5 h, 200 µM ([5]; PAMPA): 8.68 ×10⁻⁶ cm/s; Conc. acceptor well ([5]; replica 1): 55.19 µM; Conc. donor well ([5]; replica 1): 214.69 µM; Conc. acceptor well ([5]; replica 2): 55.84 µM; Conc. donor well ([5]; replica 2): 190.41 µM; Conc. acceptor well ([5]; replica 3): 25.23 µM; Conc. donor well ([5]; replica 3): 225.99 µM

— PMC13197777, “Distinct 2-phenylimidazo[1,2-a]pyridine derivatives that inhibit breast cancer cell proliferation identified as AHR ligands” (iScience, 2026)
